Test results as given in ChEMBL document CHEMBL1201862, “PubChem BioAssay data set” (2004).
Calls of active or inactive are those of the source.

Legend:
[1] = test system: Vero; assay: cells; format: functional, cell-based; conditions: Chlorocebus sabaeus
[2] = test system: Vero; assay: cells; format: functional; conditions: Chlorocebus sabaeus
[3] = target: T1, CAAX prenyl protease 2 (Homo sapiens, UniProt Q9Y256); assay: human Rce1 protease inhibitors, dose response, biochemical, yeast membranes, quenched-peptide fluorescence, cherry-pick (AID 588849)
T1 sequence (Q9Y256 whole entry): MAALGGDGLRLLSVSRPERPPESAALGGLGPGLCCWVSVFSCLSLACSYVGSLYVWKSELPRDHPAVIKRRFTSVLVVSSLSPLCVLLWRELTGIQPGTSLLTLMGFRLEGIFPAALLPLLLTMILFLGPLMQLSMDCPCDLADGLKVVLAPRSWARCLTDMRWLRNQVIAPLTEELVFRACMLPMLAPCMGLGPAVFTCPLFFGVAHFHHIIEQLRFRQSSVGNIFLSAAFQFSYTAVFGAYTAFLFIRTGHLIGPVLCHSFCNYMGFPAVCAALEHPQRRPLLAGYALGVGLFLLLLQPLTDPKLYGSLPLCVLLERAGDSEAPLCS

[4] = target: T2, CAAX prenyl protease 2 (Saccharomyces cerevisiae S288c, UniProt Q03530); format: biochemical
T2 sequence (Q03530 whole entry): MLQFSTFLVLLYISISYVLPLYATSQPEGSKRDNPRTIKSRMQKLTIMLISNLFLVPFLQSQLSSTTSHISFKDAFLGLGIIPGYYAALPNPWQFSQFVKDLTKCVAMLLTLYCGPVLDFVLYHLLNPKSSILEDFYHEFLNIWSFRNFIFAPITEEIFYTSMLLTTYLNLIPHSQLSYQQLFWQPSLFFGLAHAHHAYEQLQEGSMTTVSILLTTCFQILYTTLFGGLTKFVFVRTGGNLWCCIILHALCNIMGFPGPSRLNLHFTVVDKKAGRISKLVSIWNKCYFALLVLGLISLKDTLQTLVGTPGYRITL

[5] = target: Protein Wnt-3a (Mus musculus, UniProt P27467); assay: Wnt3a-driven reporter signaling inhibition, dose response, selectivity assay for Gli-SUFU antagonist project, Wnt-LIGHT cells, luminescence (AID 651570); format: functional; conditions: read-out: IC50_Mean;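 also: Wnt-LIGHT reporter cells stimulated with conditioned medium from Wnt3a-producing cells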
Protein Wnt-3a, sequence (P27467 whole entry): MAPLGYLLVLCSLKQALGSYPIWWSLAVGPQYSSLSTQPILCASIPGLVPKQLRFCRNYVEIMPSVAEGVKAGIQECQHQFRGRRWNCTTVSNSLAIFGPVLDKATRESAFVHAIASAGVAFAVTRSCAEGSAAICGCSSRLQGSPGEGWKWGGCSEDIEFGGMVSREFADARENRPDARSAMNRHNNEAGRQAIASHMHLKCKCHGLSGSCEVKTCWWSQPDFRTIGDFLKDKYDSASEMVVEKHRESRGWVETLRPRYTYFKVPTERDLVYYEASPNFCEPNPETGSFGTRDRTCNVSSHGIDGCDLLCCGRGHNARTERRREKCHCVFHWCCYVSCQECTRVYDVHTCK

[6] = insulin promoter down-regulators in MIN6 cells, imaging, high-content screening, mouse beta cells (AID 1628); format: functional
[7] = cytotoxicity in MIN6 insulinoma cells, dose response, cytotoxicity control, cell-based, mouse insulinoma (AID 2122); format: functional;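 also: confirmatory high-throughput counterscreen run to flag cytotoxic compounds; mouse MIN-6 beta cells carrying an insulin promoter eGFP reporter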
[8] = control 3'UTR Renilla luciferase suppression, dose response, counter-screen for Shn3 inhibitor project, cell-based, Clone20-Shn3RL, cherry-picked (AID 624133); format: functional
[9] = Shn3 3'UTR reporter inhibitors, dose response, cell-based, Clone20 osteoblasts, firefly luciferase, cherry-picked (AID 624132); format: functional;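 also: firefly luciferase luminescence from reporter carrying the Shn3 3'UTR in osteoblasts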
[10] = target: T3, DNA repair protein RAD52 homolog (Homo sapiens, UniProt P43351); format: functional, biochemical
T3 sequence (P43351 whole entry): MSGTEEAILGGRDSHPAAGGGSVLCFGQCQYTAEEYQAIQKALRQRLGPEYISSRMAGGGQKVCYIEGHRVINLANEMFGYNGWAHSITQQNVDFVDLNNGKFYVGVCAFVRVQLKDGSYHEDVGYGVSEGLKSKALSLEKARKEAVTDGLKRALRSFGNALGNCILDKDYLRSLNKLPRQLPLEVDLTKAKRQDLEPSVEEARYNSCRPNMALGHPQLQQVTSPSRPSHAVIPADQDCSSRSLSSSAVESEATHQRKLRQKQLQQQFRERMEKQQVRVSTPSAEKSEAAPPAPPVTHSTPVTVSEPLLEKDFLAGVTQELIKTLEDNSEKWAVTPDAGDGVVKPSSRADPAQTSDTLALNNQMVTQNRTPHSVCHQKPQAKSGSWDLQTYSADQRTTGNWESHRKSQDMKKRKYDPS

[11] = target: T4, Histone-lysine N-methyltransferase NSD2 (Homo sapiens, UniProt O96028); format: biochemical
T4 sequence (O96028 whole entry): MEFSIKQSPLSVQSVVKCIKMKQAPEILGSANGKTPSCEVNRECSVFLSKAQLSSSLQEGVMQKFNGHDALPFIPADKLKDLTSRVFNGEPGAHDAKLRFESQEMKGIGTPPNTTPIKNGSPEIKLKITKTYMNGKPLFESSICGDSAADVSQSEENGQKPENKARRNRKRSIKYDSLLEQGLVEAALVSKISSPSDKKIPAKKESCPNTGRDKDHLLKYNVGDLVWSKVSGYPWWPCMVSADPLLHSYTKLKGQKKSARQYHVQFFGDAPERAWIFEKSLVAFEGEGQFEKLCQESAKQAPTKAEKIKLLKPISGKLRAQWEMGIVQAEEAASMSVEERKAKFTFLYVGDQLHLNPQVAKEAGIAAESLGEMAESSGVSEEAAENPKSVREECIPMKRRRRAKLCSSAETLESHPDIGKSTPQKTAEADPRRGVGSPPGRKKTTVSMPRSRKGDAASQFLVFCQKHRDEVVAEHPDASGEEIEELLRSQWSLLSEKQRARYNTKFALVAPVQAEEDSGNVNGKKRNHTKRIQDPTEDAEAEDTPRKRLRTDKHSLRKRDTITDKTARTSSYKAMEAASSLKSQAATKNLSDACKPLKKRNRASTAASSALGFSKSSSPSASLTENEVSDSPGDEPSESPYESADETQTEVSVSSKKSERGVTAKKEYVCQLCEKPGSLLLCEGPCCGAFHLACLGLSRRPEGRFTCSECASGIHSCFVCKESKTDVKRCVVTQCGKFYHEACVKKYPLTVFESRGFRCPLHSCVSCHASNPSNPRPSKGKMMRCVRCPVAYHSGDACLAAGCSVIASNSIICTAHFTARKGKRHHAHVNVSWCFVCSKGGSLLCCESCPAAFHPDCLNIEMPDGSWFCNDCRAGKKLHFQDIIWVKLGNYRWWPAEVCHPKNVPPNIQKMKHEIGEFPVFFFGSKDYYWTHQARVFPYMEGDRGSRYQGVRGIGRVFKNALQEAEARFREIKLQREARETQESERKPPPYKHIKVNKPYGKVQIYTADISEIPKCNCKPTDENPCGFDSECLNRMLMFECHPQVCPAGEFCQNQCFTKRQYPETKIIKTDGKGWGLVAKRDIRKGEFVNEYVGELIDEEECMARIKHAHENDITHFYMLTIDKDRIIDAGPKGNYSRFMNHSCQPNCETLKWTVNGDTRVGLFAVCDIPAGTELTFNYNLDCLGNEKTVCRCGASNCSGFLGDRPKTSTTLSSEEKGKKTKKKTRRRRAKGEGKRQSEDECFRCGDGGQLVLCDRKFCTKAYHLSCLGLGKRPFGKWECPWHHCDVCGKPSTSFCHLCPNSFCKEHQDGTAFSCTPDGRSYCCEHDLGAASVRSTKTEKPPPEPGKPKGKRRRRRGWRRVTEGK

[12] = target: Glucose-6-phosphate 1-dehydrogenase (Homo sapiens, UniProt P11413); assay: human G6PD enzyme inhibitors, dose response, selectivity assay for P. falciparum G6PD inhibitor project, biochemical, fluorescence (AID 504792); format: functional
Glucose-6-phosphate 1-dehydrogenase, sequence (P11413 whole entry): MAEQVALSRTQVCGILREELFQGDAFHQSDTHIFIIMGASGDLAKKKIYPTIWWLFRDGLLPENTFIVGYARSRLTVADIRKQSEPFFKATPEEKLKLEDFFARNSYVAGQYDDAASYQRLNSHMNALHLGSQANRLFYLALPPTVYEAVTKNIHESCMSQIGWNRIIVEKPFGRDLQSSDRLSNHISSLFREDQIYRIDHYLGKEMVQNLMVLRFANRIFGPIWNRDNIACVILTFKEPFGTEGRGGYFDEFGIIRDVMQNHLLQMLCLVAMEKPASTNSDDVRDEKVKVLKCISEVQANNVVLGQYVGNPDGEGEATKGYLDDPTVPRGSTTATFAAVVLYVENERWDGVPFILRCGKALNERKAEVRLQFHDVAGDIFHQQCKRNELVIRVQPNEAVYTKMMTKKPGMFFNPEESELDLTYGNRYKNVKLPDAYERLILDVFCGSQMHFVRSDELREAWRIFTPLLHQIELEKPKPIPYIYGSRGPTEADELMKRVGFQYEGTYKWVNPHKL

[13] = target: T5, Leucine aminopeptidase (Plasmodium falciparum 3D7, UniProt Q8IL11); assay: P. falciparum M17LAP inhibitors, primary screen, biochemical, fluorogenic H-Leu-NHMec substrate, 1536-well (AID 1619); format: functional
T5 sequence (Q8IL11 whole entry): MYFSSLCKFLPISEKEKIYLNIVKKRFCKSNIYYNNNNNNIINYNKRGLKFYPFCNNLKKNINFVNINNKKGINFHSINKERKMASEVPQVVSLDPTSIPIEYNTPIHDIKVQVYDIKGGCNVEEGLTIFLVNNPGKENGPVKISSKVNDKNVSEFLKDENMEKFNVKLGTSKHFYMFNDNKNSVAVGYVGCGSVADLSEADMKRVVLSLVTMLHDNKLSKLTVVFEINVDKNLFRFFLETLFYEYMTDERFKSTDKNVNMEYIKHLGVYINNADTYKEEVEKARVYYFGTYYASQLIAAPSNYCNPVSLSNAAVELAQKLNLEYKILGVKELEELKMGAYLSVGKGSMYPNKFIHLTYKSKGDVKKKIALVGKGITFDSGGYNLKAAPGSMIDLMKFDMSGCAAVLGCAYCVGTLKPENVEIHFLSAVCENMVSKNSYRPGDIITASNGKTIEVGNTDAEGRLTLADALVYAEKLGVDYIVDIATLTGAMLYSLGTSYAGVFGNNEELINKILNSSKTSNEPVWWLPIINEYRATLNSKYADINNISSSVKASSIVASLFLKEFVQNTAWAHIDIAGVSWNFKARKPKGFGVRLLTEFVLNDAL

[14] = target: T6, Protein skinhead-1 (Caenorhabditis elegans, UniProt P34707); format: functional
T6 sequence (P34707 whole entry): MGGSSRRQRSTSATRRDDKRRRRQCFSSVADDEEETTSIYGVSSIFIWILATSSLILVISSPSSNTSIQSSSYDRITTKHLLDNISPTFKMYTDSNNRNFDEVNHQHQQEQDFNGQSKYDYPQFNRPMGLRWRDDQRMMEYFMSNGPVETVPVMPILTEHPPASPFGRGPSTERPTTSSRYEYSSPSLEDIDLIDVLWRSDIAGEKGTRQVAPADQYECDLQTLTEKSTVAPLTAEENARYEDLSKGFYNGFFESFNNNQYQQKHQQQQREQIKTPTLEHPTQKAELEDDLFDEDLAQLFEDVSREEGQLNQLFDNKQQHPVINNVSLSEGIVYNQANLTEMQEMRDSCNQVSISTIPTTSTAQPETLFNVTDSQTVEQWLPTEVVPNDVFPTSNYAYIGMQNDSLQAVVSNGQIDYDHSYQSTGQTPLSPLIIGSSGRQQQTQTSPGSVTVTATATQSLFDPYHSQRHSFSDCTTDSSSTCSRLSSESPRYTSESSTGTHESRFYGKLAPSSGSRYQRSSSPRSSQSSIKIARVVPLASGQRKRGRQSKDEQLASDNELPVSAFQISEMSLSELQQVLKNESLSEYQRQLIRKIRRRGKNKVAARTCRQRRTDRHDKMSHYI

[15] = HEp-2 cell cytotoxicity, dose response, cytotoxicity control for RSV inhibitor project, HTS (AID 2410); format: functional; conditions: human respiratory syncytial virus
[16] = target: T7, Rac GTPase-activating protein 1 (Homo sapiens, UniProt Q9H0H5); assay: MgcRacGAP GTPase-activating activity inhibitors, confirmation, biochemical, ADP Hunter fluorescence, primary and confirmatory (AID 624330); format: functional
T7 sequence (Q9H0H5 whole entry): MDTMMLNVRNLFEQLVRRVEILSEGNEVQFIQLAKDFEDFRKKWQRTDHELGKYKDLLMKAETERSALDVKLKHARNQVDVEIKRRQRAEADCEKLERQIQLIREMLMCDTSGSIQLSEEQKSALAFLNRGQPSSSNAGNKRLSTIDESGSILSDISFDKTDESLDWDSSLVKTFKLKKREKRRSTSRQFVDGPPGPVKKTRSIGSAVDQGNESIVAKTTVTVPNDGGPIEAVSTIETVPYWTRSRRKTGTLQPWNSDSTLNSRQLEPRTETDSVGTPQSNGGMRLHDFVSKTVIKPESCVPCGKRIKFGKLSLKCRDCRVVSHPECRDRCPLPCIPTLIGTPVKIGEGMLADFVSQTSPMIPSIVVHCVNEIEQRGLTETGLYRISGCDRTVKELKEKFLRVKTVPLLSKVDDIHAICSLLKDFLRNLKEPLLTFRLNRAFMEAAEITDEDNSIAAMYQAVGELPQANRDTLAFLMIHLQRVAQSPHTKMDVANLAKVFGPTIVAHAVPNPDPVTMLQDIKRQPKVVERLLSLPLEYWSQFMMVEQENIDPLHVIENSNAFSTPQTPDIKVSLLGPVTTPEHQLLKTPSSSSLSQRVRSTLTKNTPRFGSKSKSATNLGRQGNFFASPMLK

[17] = target: Heat shock protein HSP 90-alpha (Homo sapiens, UniProt P07900); format: functional, organism-based
[18] = target: Melanin-concentrating hormone receptor 1 (Homo sapiens, UniProt Q99705); assay: Late-stage fluorescence-based counterscreen for antagonists of the G-protein coupled receptor 7 (GPR7): cell-based dose response assay to identify antagonists of the melanin-concentrating hormone receptor 1 (MCHR1) Set 5.; format: functional
Melanin-concentrating hormone receptor 1, sequence (Q99705 whole entry): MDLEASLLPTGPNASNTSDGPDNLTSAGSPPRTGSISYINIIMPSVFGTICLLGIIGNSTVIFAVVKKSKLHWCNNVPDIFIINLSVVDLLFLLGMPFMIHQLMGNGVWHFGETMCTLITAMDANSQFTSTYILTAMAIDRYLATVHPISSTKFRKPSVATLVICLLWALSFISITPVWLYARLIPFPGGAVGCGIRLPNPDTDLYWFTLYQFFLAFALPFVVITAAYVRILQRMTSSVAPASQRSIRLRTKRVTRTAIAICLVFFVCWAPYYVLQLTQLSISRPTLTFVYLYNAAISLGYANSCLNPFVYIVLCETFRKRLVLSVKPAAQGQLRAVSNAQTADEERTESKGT

[19] = cells; format: functional

## CN1CCN(CCC=C2c3ccccc3Sc3ccc(S(=O)(=O)N(C)C)cc32)CC1
[1]
  IC50: > 25 µM (active)
[2]
  CC50: 19.7 µM (active)

## COC(=O)c1nc(N)sc1-c1ccc(Cl)c(Cl)c1
[3]
  AC50: 11.6 µM (active)
[4]
  AC50: 21.3 µM (active)

## O=C(Cn1cc(C(=O)c2ccco2)c2ccccc21)Nc1ccccc1F
[5]
  IC50: 4.08 µM (active)
[6]
  IC50: 1.79 µM (active)
[7]
  IC50: 1.33 µM (active)
[8]
  AC50: 4.67 µM (active)
[9]
  AC50: 2.6 µM (active)

## CCN(CC)CCCN(Cc1cc2cc3c(cc2[nH]c1=O)OCO3)C(=S)NCCCN(C)C
[10]
  AC50: 5.22 µM (active)
[3]
  AC50: 10.5 µM (active)
[4]
  AC50: 16.4 µM (active)
[11]
  AC50: 9.07 µM (active)

## COc1cc(CN2CCN(CCCc3ccccc3)C(CCO)C2)cc(OC)c1O (stereo not drawn)
[12]
  IC50: 58.7 µM (inactive)

## COc1ccc(Nc2nnc(SCC(=O)/C=C3/N(C)c4ccccc4C3(C)C)s2)cc1
[13]
  IC50: 21.1 µM (active)
[14]
  IC50: > 100 µM (inactive)
[6]
  IC50: 1.64 µM (active)
[7]
  IC50: 1.72 µM (active)
[15]
  CC50: 7.33 µM (active)

## Cc1ccc(/C=C2\SC(=S)N(CCC(=O)N3CCOCC3)C2=O)cc1
[1]
  IC50: > 25 µM (active)
[2]
  CC50: 14.5 µM (active)

## O=[S@]1Oc2ccccc2-c2ccccc21
[16]
  IC50: 76 µM (active)
[17]
  AC50: 2.2 µM (active)

## O=C(NC1CCCCC1)c1ccc2ccccc2c1O
[1]
  IC50: 11.3 µM (active)

## COc1cc(Oc2c(Cl)cnn(Cc3cccc4ccccc34)c2=O)cc(OC)c1OC
[18]
  IC50: 3.22 µM (active)

## COc1ccc(Oc2c(Cl)cnn(-c3nc4ccccc4c(=O)c4ccccc34)c2=O)cc1
[18]
  IC50: 0.707 µM (active)

## Cc1nnc(N/N=C/c2ccc(-c3ccccc3F)o2)n1N
[19]
  IC50: 22.3 µM (active)
[12]
  IC50: > 80 µM (inactive)
